Measurements published in ChEMBL document CHEMBL6109132, “Potent and Selective Human Constitutive Androstane Receptor Activator DL5055 Facilitates Cyclophosphamide-Based Chemotherapies” (J Med Chem, 2025).

Molecular target: T1, Nuclear receptor subfamily 1 group I member 3 (Homo sapiens, UniProt Q14994)
T1 sequence (Q14994 whole entry): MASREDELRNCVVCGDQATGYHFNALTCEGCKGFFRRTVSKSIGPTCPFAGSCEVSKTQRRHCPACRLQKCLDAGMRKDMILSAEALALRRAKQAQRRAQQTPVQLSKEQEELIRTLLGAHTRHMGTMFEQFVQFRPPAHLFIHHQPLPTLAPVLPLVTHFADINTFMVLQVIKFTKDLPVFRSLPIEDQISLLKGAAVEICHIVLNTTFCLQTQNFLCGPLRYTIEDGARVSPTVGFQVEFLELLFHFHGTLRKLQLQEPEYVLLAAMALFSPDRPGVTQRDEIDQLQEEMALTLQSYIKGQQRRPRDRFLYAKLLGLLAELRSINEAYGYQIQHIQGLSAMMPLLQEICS
Assay: Agonist activity at human CAR expressed in human HepG2 cells co-expressing CYP2B6 incubated for 23 hrs by Luciferase reporter gene assay
Format: cell-based
Details: not given; call rule not given here

Row | SMILES | EC50
1 | c1ccc2c(c1)CC(NCc1c(-c3ccc4ccccc4c3)nc3occn13)C2 | 670 nM
2 | O=C(NCCc1ccc(Br)cc1)c1c(-c2ccc3ccccc3c2)nc2occn12 | 3500 nM
3 | O=C(NC1Cc2ccccc2C1)c1c(CCc2ccccc2)nc2occn12 | > 100000 nM
4 | O=C(NC1Cc2ccccc2C1)c1c(-c2ccc(F)c(C(F)(F)F)c2)nc2occn12 | 18000 nM
5 | O=C(NOCc1ccccc1)c1c(-c2ccc3ccccc3c2)nc2occn12 | 4400 nM
6 | O=C(NCC1Cc2ccccc2C1)c1c(-c2ccc(F)cc2F)nc2occn12 | 1900 nM

Next, values leading:

Row | EC50 | SMILES
7 | 1100 nM | O=C(N[C@H]1C[C@H](c2ccccc2)C1)c1c(-c2ccc3ccccc3c2)nc2occn12
8 | 440 nM | O=C(NC1Cc2ccccc2C1)c1c(-c2ccc(F)cc2F)nc2occn12
9 | 750 nM | O=C(NC1Cc2ccccc2C1)c1c(-c2ccc3c(c2)OCCO3)nc2occn12
10 | 1200 nM | O=C(Nc1c(-c2ccc3ccccc3c2)nc2occn12)C1Cc2ccccc2C1
11 | 830 nM | Cc1ccccc1CCNC(=O)c1c(-c2ccc3ccccc3c2)nc2occn12
12 | 380 nM | O=C(OC1Cc2ccccc2C1)c1c(-c2ccc3ccccc3c2)nc2occn12
13 | 330 nM | O=C(N[C@H]1C[C@@H](c2ccccc2)C1)c1c(-c2ccc3ccccc3c2)nc2occn12
14 | 350 nM | O=C(NOCc1ccc(Cl)c(Cl)c1)c1c(-c2ccc3ccccc3c2)nc2occn12
15 | 210 nM | O=C(NCC1Cc2ccccc2C1)c1c(-c2ccc3ccccc3c2)nc2occn12
16 | 380 nM | O=C(NC1Cc2ccccc2C1)c1c(-c2ccc(Cl)cc2)nc2occn12

Molecular target: T2, Nuclear receptor subfamily 1 group I member 2 (Homo sapiens, UniProt O75469)
T2 sequence (O75469 whole entry): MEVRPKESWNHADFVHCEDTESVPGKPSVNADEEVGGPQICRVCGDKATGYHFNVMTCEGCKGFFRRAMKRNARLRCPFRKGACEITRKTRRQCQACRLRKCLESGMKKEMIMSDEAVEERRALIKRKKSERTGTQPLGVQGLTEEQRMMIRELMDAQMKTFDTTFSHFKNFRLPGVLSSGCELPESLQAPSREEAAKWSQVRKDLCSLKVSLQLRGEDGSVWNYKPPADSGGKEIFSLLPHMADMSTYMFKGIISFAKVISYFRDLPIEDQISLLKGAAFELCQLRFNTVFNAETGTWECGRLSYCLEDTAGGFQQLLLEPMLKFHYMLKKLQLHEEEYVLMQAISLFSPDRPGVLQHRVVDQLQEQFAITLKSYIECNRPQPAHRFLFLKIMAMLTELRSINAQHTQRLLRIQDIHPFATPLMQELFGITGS
Assay: Activation of human PXR expressed in human HepG2 cells assessed as increase in CYP3A4 mRNA level at >1 uM incubated for 24 hrs by luciferase based analysis
Format: cell-based
Details: hepg2, 24 h

Row | SMILES | Activity
17 | c1ccc2c(c1)CC(NCc1c(-c3ccc4ccccc4c3)nc3occn13)C2 | Active
18 | Clc1ccc(-c2nc3sccn3c2/C=N/OCc2ccc(Cl)c(Cl)c2)cc1 | Active
